Laboratory results as given in paper PMC3445653 (Neuropharmacology, 2012).
Entries after “also recorded” stand apart in the source; their conditions may differ. Like-named read-outs stand apart in the source and are kept apart here.

Assays:
PKMζ-RFP fusion protein = details: ref Wu-Zhang et al., 2012, cited from earlier work
catalytic domain of PKC = details: ref Herbert et al., 1990, cited from earlier work
PKMζ [1] = target: T1, PKMζ (Homo sapiens, UniProt Q05513); details: ref Ling et al., 2002; cited from earlier work
T1 sequence (Q05513 1-409 isoform Q05513-2): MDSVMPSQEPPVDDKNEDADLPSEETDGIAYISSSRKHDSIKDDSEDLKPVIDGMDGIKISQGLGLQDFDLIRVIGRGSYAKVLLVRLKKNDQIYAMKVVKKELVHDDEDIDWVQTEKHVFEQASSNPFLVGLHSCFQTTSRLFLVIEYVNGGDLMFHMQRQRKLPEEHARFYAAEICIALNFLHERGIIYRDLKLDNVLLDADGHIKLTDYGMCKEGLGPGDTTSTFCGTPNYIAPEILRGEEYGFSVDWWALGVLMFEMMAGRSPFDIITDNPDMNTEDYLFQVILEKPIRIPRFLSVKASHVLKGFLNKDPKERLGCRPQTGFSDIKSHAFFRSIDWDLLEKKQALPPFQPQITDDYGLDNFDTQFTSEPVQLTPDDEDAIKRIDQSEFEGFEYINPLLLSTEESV

PKMζ [2] = target: T1, PKMζ; experiment: PKMζ phosphorylation assay, PKCε substrate; format: biochemical
LTP maintenance = details: cited from earlier work
LTP induction = details: 100 nM; hippocampal slices; ref Ling et al., 2002; cited from earlier work
[3] = tested on: PDK1 phosphorylation of N-terminally tagged, eGFP-PKMζ overexpressed in 293T cells; experiment: Activation loop phosphorylation of eGFP-PKMζ overexpressed in 293T cells; format: cell-based; details: 100 nM for 4 hr; A. Tcherepanov and T. C. Sacktor, unpublished data
[4] = tested on: PDK1 phosphorylation of PKMζ (T410); experiment: Activation loop; format: cell-based, Sprague Dawley rats; details: 100 nM for 4 hr, control vs staurosporine p = 0.9, n = 5
[5] = tested on: baseline fEPSPs in hippocampal slices; experiment: Baseline fEPSP in hippocampal slices; format: cell-based, Sprague Dawley rats; details: 100 nM; p = 0.8 between 10 and 60 min; n = 4
[6] = tested on: baseline postsynaptic AMPAR responses in CA1 pyramidal cells of hippocampal slices; experiment: Baseline postsynaptic AMPAR-mediated EPSCs; format: cell-based, Sprague Dawley rats; details: 5 μM scrambled ZIP; p = 0.6, 1 min before application vs 15 min after; n = 4

COc1ccc2c(c[n+](C)c3c4cc5c(cc4ccc23)OCO5)c1OC [chelerythrine]
inhibition of PKMζ fusion protein in transfected cultured cells (PKMζ-RFP fusion protein): did not inhibit | mode of inhibition (catalytic domain of PKC; inhibition of substrate binding): competitive inhibitors of substrate binding | inhibition of catalytic domain of PKC (catalytic domain of PKC; Thompson and Fields, 1996): inhibitor of the catalytic domain of PKC | inhibition of PKM forms (PKMζ [1]): highly effective on PKM forms; also recorded: particularly effective on PKM forms | inhibition of PKMζ, 10 μM DTT (PKMζ [2]; DTT 10 μM, PKMζ 5 nM, 25 μM PKCε substrate, n = 4): effective | inhibition of PKMζ, 1 mM DTT (PKMζ [2]; DTT 1 mM, PKMζ 5 nM, 25 μM PKCε substrate, n = 4): much less effective | sensitivity to redox state (PKMζ [2]; high levels of dithiothreitol (DTT), PKMζ 5 nM): redox-sensitive inhibitor of PKMζ; also recorded: sensitive to redox state

CN[C@@H]1C[C@H]2O[C@@](C)([C@@H]1OC)n1c3ccccc3c3c4c(c5c6ccccc6n2c5c31)C(=O)NC4 [staurosporine]
activation loop phosphorylation of overexpressed PKMζ-RFP (PKMζ-RFP fusion protein; cultured cells): reduce activation loop phosphorylation | effect on LTP maintenance (LTP maintenance; 100 nM, 4 hours, hippocampal slices, ref Ling et al., 2002): does not reverse LTP maintenance; also recorded: but not LTP maintenance | effect on LTP induction (LTP induction): prevented LTP induction; also recorded: block LTP induction | PDK1 phosphorylation of eGFP-PKMζ [3]: no effect | phosphorylation state of the activation loop of PKMζ (T410P) [4]: no effect | phosphorylation state of the activation loop of PKMζ (T410P) ([4]; listed as Staurosporine): does not alter the phosphorylation state | effect on baseline fEPSP [5]: no effect on baseline

myr-RLYRKRIWRSAGR-OH [scrambled ZIP]
effect on LTP maintenance (LTP maintenance; dose equivalent to ZIP (5 μM), ref Serrano et al., 2005): ineffective | efficacy on inhibiting PKMζ biochemically in vitro relative to ZIP (PKMζ [2]; Fig. 4A, right, compared with ZIP): less effective | inhibition of PKMζ at higher doses (PKMζ [2]; higher doses, Fig. 4A, right): will also inhibit PKMζ at higher doses | effect on baseline postsynaptic AMPAR responses [6]: no effect
